Article PMC12226049, “Imlunestrant a next-generation oral SERD overcomes ESR1 mutant resistance in estrogen receptor–positive breast cancer” (JCI Insight, 2025)

Target: T1, Estrogen receptor α (ER) (Homo sapiens, UniProt P03372, Y537S)
T1 construct: gene ESR1; HA-tagged ER mutant, doxycycline-inducible in MCF7
T1 sequence (P03372 1-595 Y537S): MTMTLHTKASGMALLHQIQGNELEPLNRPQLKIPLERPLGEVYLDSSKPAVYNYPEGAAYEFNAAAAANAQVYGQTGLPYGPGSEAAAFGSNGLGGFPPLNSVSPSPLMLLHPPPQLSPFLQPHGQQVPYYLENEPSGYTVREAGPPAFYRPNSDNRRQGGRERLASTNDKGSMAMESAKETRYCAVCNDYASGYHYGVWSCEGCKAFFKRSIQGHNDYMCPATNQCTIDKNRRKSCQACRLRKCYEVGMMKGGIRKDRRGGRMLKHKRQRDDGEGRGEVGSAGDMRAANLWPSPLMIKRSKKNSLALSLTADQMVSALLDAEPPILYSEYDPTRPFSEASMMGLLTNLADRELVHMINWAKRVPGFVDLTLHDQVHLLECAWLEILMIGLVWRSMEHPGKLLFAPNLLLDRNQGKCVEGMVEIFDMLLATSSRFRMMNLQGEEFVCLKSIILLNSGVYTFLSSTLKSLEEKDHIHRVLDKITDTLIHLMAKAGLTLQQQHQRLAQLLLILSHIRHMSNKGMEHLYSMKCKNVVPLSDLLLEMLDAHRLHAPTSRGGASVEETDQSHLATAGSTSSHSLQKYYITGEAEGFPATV
Assay: degradation of HA-tagged ER-Y537S by western blot in MCF7 cells ([…])
Format: cell-based

SMILES: Oc1ccc2c3c(cnc2c1)-c1ccc(C(F)(F)F)cc1O[C@@H]3c1ccc(OCCN2CC(CF)C2)cc1 [IML, imlunestrant]
- degradation of HA-tagged ER-Y537S by western blot in MCF7 cells (100 nM): mutant-ER protein degradation was superior with imlunestrant treatment versus fulvestrant
